The source of these data is patent US8940768B2, “Antifungal triazole derivatives” (Daewoong Pharmaceutical Co., Ltd., priority 2010, dated 2015).

≈ marks a conversion by molar mass, not a printed value.

What all share (format): cell-based
Assay [1] relates to Candida albicans. In words: in vitro antifungal activity (MIC80), Candida albicans. The conditions noted are these: 80% growth inhibition vs negative control, RPMI 1640, read 24 hrs after application, Table 1, read-out: Antifungal Activity (MIC80) C. albicans. Here is the method: (§1) The compounds of the present invention were evaluated for inhibitory activity against yeast molds including Candida albicans, Candida glabrata, Candida krusei, Candida tropicalis, Candida parapsilosis, and Cryptococcus neoformans, and filamentous fungi including Aspergillus fumigatus, Trichophyton mentagrophytes (obtained from KCTC (Korean Collection for Type Cultures), and Trichophyton rubrum (obtained from KCCM (Korean Culture Center of Microorganisms). All the strains, but Trichophyton mentagrophytes and Trichophyton rubrum, were purchased from the ATCC (American Type Culture Collection).
(§2) Of the strains used in this test, Candida albicans, Candida glabrata, Candida krusei, Candida tropicalis, Candida parapsilosis, Trichophyton mentagrophytes and Trichophyton rubrum were inoculated into sabouraud dextrose agars (Difco, BD-0109), Cryptococcus neoformans into a yeast mold agar (YM agar, Difco, 271210), and Aspergillus fumigatus into a malt extract agar (Difco, 211220), before incubation at 35° C. for two to ten days.
(§3) From the agars on which the yeast molds were grown, single colonies were picked up, and each was sufficiently suspended in 5 mL of already prepared, 0.85% sterile saline. After correction of the absorbance to 0.108 at 530 nm, each of the suspensions was diluted to a ratio of 1:50 in an RPMI (Roswell park memorial institute) 1640 medium and then to a ratio of 1:20 to prepare an inoculum having a cell density of from 1.0×10^3 to 5.0×10^3CFU/mL. The cell density was adjusted into […]˜5.0×10^4 CFU/mL for Aspergillus fumigates and 0.4×10^4˜5.0×10^4 CFU/mL for both Trichophyton mentagrophytes and Trichophyton rubrum.
(§4) The antifungal agent samples were prepared by diluting the active compounds in an RPMI 1640 medium to a serial density of from 0.0156 to 32 μg/mL. In this context, dimethylsulfoxide (DMSO) was used as an excipient at a final concentration of 1% (v/v). The serial dilutions were aliquoted at a volume of 0.1 mL and applied to 0.1 mL of the aliquots of each inoculum, followed by incubation.
(§5) With the naked eyes, an observation was made of all of the yeast molds, but Cryptococcus neoformans 24 hrs after the application, Cryptococcus neoformans and Aspergillus fumigatus 48 hrs after the application, and Trichophyton mentagrophytes and Trichophyton rubrum five days after the application to examine whether the fungi grew or not. In addition, Alamarblue™ as used to determine the concentrations of the compounds of the present invention at which the growth of the microorganisms was 80% inhibited compared to that of the negative control. All experiments were performed in duplicate for each of the test concentration groups.

Assay [2] concerns Trichophyton rubrum. As to the kind of experiment: in vitro antifungal activity (MIC80), Trichophyton rubrum. The note with it: 120 h, 80% growth inhibition vs negative control, RPMI 1640, read five days after application. As to the method:
as §1, §2, §3, §4, §5

Assay [3] relates to Trichophyton mentagrophytes. In words: in vitro antifungal activity (MIC80), Trichophyton mentagrophytes. The note with it: 120 h, 80% growth inhibition vs negative control, RPMI 1640, read five days after application. Here is the method: as §1, §2, §3, §4, §5
Assay [4] relates to Aspergillus fumigatus. In words: in vitro antifungal activity (MIC80), Aspergillus fumigatus. The note with it: 80% growth inhibition vs negative control, RPMI 1640, read 48 hrs after application. As to the method:
as §1, §2, §3, §4, §5

Assay [5] has as its system Cryptococcus neoformans. As to the kind of experiment: in vitro antifungal activity (MIC80), Cryptococcus neoformans. The conditions noted are these: 80% growth inhibition vs negative control, RPMI 1640, read 48 hrs after application. As to the method: as §1, §2, §3, §4, §5
Assay [6] has as its system Candida krusei. In words: in vitro antifungal activity (MIC80), Candida krusei. The conditions noted are these: Pichia kudriavzevii; 80% growth inhibition vs negative control; RPMI 1640; read 24 hrs after application; read-out: Antifungal Activity (MIC80) C. krusei. As to the method:
as §1, §2, §3, §4, §5

Assay [7] relates to Candida tropicalis. In words: in vitro antifungal activity (MIC80), Candida tropicalis. The note with it: 80% growth inhibition vs negative control, RPMI 1640, read 24 hrs after application, read-out: Antifungal Activity (MIC80) C. tropicalis. Here is the method:
as §1, §2, §3, §4, §5

The test system of assay [8] is Candida parapsilosis. As to the kind of experiment: in vitro antifungal activity (MIC80), Candida parapsilosis. The note with it: Lodderomyces parapsilosis; 80% growth inhibition vs negative control; RPMI 1640; read 24 hrs after application; read-out: Antifungal Activity (MIC80) C. parapsilosis. Here is the method:
as §1, §2, §3, §4, §5

In assay [9] the test system is Candida glabrata. In words: in vitro antifungal activity (MIC80), Candida glabrata. The conditions noted are these: Nakaseomyces glabratus, 24 h, read-out: Antifungal Activity (MIC80) C. grabrata. As to the method:
as §1, §2, §3, §4, §5

As a reminder, the MIC80 is an inhibitory concentration at the 80% level, which refers to growth in some studies and to a panel of isolates in others. Turning to `C[C@@H](N1CCC(Oc2ccc(F)cc2)CC1)[C@](O)(Cn1cncn1)c1ccc(F)cc1F` [Example 1, (2R,3R)-2-(2,4-difluorophenyl)-3-(4-(4-fluorophenoxy)piperidin-1-yl)-1-(1H-1,2,4-triazol-1-yl)butan-2-ol], the MIC80 in assay [1] is not above 0.015 µg/mL; in assay [2], not above 0.125 µg/mL; in assay [3], not above 0.125 µg/mL; in [4], not above 0.125 µg/mL; in [5] it was not above 0.015 µg/mL; in assay [6] it was 0.062 µg/mL (≈ 0.139 µM). The figures for the MIC80 in assay [7], in assay [8] and in assay [9] were 0.062 µg/mL (≈ 0.139 µM), not above 0.015 µg/mL and 0.25 µg/mL (≈ 0.56 µM), respectively.

As for `C[C@@H](N1CCC(Oc2ncccn2)CC1)[C@](O)(Cn1cncn1)c1ccc(F)cc1F` [Example 29, (2R,3R)-2-(2,4-difluorophenyl)-3-(4-(pyrimidin-2-yloxy)piperidin-1-yl)-1-(1H-1,2,4-triazol-1-yl)butan-2-ol], the MIC80 was not above 0.015 µg/mL in [1]; not above 0.125 µg/mL in assay [2]; 0.062 µg/mL (≈ 0.144 µM) in [3]; 1 µg/mL (≈ 2.32 µM) in assay [4]; not above 0.015 µg/mL in assay [5]; 0.5 µg/mL (≈ 1.16 µM) in assay [6]. Further, the MIC80 in [7] worked out at 0.25 µg/mL (≈ 0.581 µM); in assay [8], 0.062 µg/mL (≈ 0.144 µM); in assay [9], 1 µg/mL (≈ 2.32 µM).

For `C[C@@H](N1CCC(Oc2ncc(Br)cn2)CC1)[C@](O)(Cn1cncn1)c1ccc(F)cc1F` [Example 32, (2R,3R)-3-(4-((5-bromopyrimidin-2-yl)oxy)piperidin-1-yl)-2-(2,4-difluorophenyl)-1-(1H-1,2,4-triazol-1-yl)butan-2-ol], the MIC80 in assay [1] is not above 0.015 µg/mL; in assay [2] it was 0.031 µg/mL (≈ 0.0609 µM); in assay [3], not above 0.125 µg/mL; in assay [4] it was not above 0.125 µg/mL; in [5] it was not above 0.015 µg/mL; in [6] it was 0.125 µg/mL (≈ 0.245 µM). Moreover, the MIC80 in assay [7] was not above 0.015 µg/mL; in assay [8], not above 0.015 µg/mL; in assay [9] it was 0.125 µg/mL (≈ 0.245 µM).

In the case of `C[C@@H](N1CCC(Nc2ccc(Cl)cc2)CC1)[C@](O)(Cn1cncn1)c1ccc(F)cc1F` [Example 34, (2R,3R)-3-(4-((4-chlorophenyl)amino)piperidin-1-yl)-2-(2,4-difluorophenyl)-1-(1H-1,2,4-triazol-1-yl)butan-2-ol], the MIC80 was not above 0.015 µg/mL in [1]; not above 0.125 µg/mL in assay [2]; not above 0.125 µg/mL in assay [3]; not above 0.125 µg/mL in assay [4]; not above 0.015 µg/mL in assay [5]; 0.031 µg/mL (≈ 0.0671 µM) in [6]. The MIC80 in assay [7] was not above 0.015 µg/mL; in assay [8], not above 0.015 µg/mL; in assay [9], 0.125 µg/mL (≈ 0.271 µM).

On to `C[C@@H](N1CCC(Nc2ccc(Cl)cn2)CC1)[C@](O)(Cn1cncn1)c1ccc(F)cc1F` [Example 59, (2R,3R)-3-(4-((5-chloropyridin-2-yl)-amino)piperidin-1-yl)-2-(2,4-difluorophenyl)-1-(1H-1,2,4-triazol-1-yl)butan-2-ol], for which the MIC80 was not above 0.015 µg/mL in assay [1]; not above 0.125 µg/mL in assay [2]; not above 0.125 µg/mL in assay [3]; 0.25 µg/mL (≈ 0.54 µM) in [4]; not above 0.015 µg/mL in assay [5]; 0.062 µg/mL (≈ 0.134 µM) in [6]. Also, the MIC80 is 0.125 µg/mL (≈ 0.27 µM) in assay [7], not above 0.015 µg/mL in assay [8] and 0.25 µg/mL (≈ 0.54 µM) in assay [9].

Consider `C[C@@H](NC1CCN(c2ccc(F)cc2)CC1)[C@](O)(Cn1cncn1)c1ccc(F)cc1F` [Example 125, (2R,3R)-2-(2,4-difluorophenyl)-3-((1-(4-fluorophenyl)piperidin-4-yl)amino)-1-(1H-1,2,4-triazol-1-yl)butan-2-ol], for which the MIC80 in assay [1] was not above 0.015 µg/mL; in [2] it was not above 0.125 µg/mL; in assay [3] it was not above 0.125 µg/mL; in [4], 0.25 µg/mL (≈ 0.561 µM); in assay [5], not above 0.015 µg/mL; in assay [6], 0.062 µg/mL (≈ 0.139 µM). Further, the results for the MIC80 in [7], in assay [8] and in assay [9] were 0.031 µg/mL (≈ 0.0696 µM), not above 0.015 µg/mL and 0.125 µg/mL (≈ 0.281 µM), respectively.

In the case of `C[C@@H](NC1CCN(c2ccc(Cl)cc2)CC1)[C@](O)(Cn1cncn1)c1ccc(F)cc1F` [Example 128, (2R,3R)-3-((1-(4-chlorophenyl)piperidin-4-yl)amino)-2-(2,4-difluorophenyl)-1-(1H-1,2,4-triazol-1-yl)butan-2-ol], the MIC80 in assay [1] was not above 0.015 µg/mL; in assay [2], not above 0.125 µg/mL; in [3], 0.015 µg/mL (≈ 0.0325 µM); in assay [4] it was 0.25 µg/mL (≈ 0.541 µM); in [5] it was not above 0.015 µg/mL; in [6] it was not above 0.015 µg/mL. Also, the MIC80 worked out at 0.031 µg/mL (≈ 0.0671 µM) in [7], 0.031 µg/mL (≈ 0.0671 µM) in [8] and 0.062 µg/mL (≈ 0.134 µM) in assay [9].

On to `C[C@@H](NC1CCN(c2ncc(Br)cn2)CC1)[C@](O)(Cn1cncn1)c1ccc(F)cc1F` [Example 153, (2R,3R)-3-((1-(5-bromopyrimidin-2-yl)piperidin-4-yl)amino)-2-(2,4-difluorophenyl)-1-(1H-1,2,4-triazol-1-yl)butan-2-ol], for which the MIC80 in assay [1] is not above 0.015 µg/mL; in [2] it was not above 0.125 µg/mL; in assay [3], 0.5 µg/mL (≈ 0.984 µM); in [4], 1 µg/mL (≈ 1.97 µM); in assay [5], not above 0.015 µg/mL; in assay [6] it was 0.125 µg/mL (≈ 0.246 µM). In addition, the MIC80 in [7] is 0.25 µg/mL (≈ 0.492 µM); in assay [8] it was not above 0.015 µg/mL; in assay [9] it was 0.125 µg/mL (≈ 0.246 µM).

On to `OC(Cn1cncn1)(Cn1cncn1)c1ccc(F)cc1F` [Fluconazole, reference compound], for which the MIC80 in assay [1] is 4 µg/mL (≈ 13.1 µM); in [2], 4 µg/mL (≈ 13.1 µM); in [3], 16 µg/mL (≈ 52.2 µM); in [4], more than 128 µg/mL; in [5], 0.5 µg/mL (≈ 1.63 µM); in assay [6], 4 µg/mL (≈ 13.1 µM). For the same molecule, the MIC80 in assay [7], in assay [8] and in assay [9] was more than 32 µg/mL throughout.

With `C[C@@H](c1ncncc1F)[C@](O)(Cn1cncn1)c1ccc(F)cc1F` [Voriconazole, reference compound], the MIC80 in assay [1] is 0.031 µg/mL (≈ 0.0887 µM); in [2] it was not above 0.125 µg/mL; in assay [3] it was 0.125 µg/mL (≈ 0.358 µM); in [4], 0.25 µg/mL (≈ 0.716 µM); in [5] it was 0.25 µg/mL (≈ 0.716 µM); in assay [6], 0.5 µg/mL (≈ 1.43 µM). The MIC80 in assay [7] came out at 0.25 µg/mL (≈ 0.716 µM); in assay [8] it was 0.5 µg/mL (≈ 1.43 µM); in [9] it was 2 µg/mL (≈ 5.73 µM).
